According to US20170044208A1, “SELECTIVE GLUCOCORTICOID RECEPTOR LIGANDS” (The University of Manchester, priority 2013, published 2017):
Where two headings read alike, the source gives them in different places.

What was measured:
[1] = molecular target: T1, Glucocorticoid Receptor (GR) (Homo sapiens, UniProt P04150); assay: Transactivation assay (MMTV-Luc reporter in HeLa cells); type: cell-based; conditions: for Emax / EC50: HeLa; for Emax: 16 h, read-out: TA Max %; for EC50: concentration for half-maximal transactivation, MMTV-Luc, 16 hours, mean, read-out: TA EC50
T1 construct: Cells were transfected the next day with MMTV-Luc (5 μg) and pGL4-hRLuc (0.1 μg); endogenous in cells; host or cells: HeLa
T1 sequence (P04150 1-777): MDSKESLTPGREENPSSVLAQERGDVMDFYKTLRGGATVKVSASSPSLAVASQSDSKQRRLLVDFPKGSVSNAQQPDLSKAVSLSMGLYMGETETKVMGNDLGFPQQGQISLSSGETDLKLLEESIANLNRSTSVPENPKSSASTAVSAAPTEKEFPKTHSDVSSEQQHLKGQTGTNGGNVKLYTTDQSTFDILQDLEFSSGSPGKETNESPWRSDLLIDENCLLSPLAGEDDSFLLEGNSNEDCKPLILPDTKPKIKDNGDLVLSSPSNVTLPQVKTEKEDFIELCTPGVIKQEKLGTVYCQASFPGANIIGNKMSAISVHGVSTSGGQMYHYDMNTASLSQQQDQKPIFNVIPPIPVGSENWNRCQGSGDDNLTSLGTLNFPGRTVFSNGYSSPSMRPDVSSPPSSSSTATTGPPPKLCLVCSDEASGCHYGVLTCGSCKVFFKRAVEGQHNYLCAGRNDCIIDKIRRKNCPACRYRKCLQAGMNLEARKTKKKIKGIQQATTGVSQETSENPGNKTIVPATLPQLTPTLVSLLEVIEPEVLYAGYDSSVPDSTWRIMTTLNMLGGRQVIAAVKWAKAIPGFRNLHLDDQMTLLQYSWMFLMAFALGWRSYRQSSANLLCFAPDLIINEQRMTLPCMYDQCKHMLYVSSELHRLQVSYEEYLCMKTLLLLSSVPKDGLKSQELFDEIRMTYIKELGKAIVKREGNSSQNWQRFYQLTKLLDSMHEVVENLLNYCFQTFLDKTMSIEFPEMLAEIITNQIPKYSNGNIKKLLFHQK
Description: (§1) HeLa cells were seeded at 80×10^4 cells/dish in 100 mm dishes. Cells were transfected the next day with MMTV-Luc (5 μg) and pGL4-hRLuc (0.1 μg), in 250 μL of Opti-MEM I using FuGENE HD (15 μL). After 24 hours, cells were trypsinized and seeded into 96-well plates at a density of 8-10×10^4 cells/mL.
Following overnight incubation to allow attachment, cells were treated with the required concentration of compounds, then further incubated for 16 hours. Media was aspirated and cells lysed in 40 μL of 1×PLB.
(§2) Firefly and Renilla luciferase activity was measured using the Dual Luciferase Reporter system following the manufacturer's protocol.
(§3) IC50 and EC50 values were calculated by using GraphPad Prism 5.0. Briefly, luminescence values for luciferase were normalised using the Renilla luminescence values. The normalised values were input into GraphPad Prism 5.0. Non-linear regression analysis was carried out using the “log(concentration) vs. response” equation of the software, with a Hill slope coefficient fixed at 1.
(§4) IC50 and EC50 values are mean values in nM of all IC50/EC50 values for the compound. Max % values are mean values of the Max% activity.

NFkB = assay: Transrepression assay (NFκB-LUC reporter in HeLa cells, TNF stimulated); type: cell-based; conditions: for Emax / IC50: Homo sapiens, HeLa; for Emax: 16 h, read-out: TR Max %
Description: as §1, with “NFκB-LUC reporter” for “MMTV-Luc”, “0.25 mL” for “250 μL”, “in to 24-well” for “into 96-well”, “cells/mL. Following overnight incubation, cells were starved for a further 24 hours in DMEM.” for “cells/mL.”
On the day of the experiment, compounds were added to cells one hour prior to the addition of […] (0.5 ng/mL). After a further 16 hours, cells were washed twice with ice-cold PBS, then lysed with 100 μL of 1×PLB.
as §2, §3, §4

[2] = concentration for half-maximal repression of NFkB, TNF 0.5 ng/mL, 16 hours, mean, read-out: TR IC50

Row | SMILES | Emax [1] [%] | EC50 [1] [nM] | Emax (NFkB) [%] | IC50 (NFkB; [2]) [nM] | TA % ([1]; comparison table, against maximal activation seen with dexamethasone) [%] | IC50 (NFkB; comparison table, half-maximal repression of NFkB, multiple experiments, read-out: IC50) [nM] | TR % (NFkB; comparison table, maximal NFkB repression compared to Dexamethasone) [%]
1 | C[C@@H]1C[C@H]2[C@@H]3CCC4=CC(=O)C=C[C@]4(C)[C@@]3(F)[C@@H](O)C[C@]2(C)[C@@]1(O)C(=O)NCCCOc1ccc(C(F)(F)F)cc1 [Compound 9] | 15.1 | 1110 | 80.5 | 25 |  |  | 
2 | COc1ccc(CCCNC(=O)[C@@]2(O)[C@H](C)C[C@H]3[C@@H]4CCC5=CC(=O)C=C[C@]5(C)[C@@]4(F)[C@@H](O)C[C@@]32C)cc1OC [Compound 13] | 30 | 189 | 87.6 | 10.8 |  |  | 
3 | C[C@@H]1C[C@H]2[C@@H]3CCC4=CC(=O)C=C[C@]4(C)[C@@]3(F)[C@@H](O)C[C@]2(C)[C@@]1(O)C(=O)NCCCc1cccc(F)c1 [Compound 14] | 36.6 | 536 | 88.6 | 23.9 |  |  | 
4 | C[C@@H]1C[C@H]2[C@@H]3CCC4=CC(=O)C=C[C@]4(C)[C@@]3(F)[C@@H](O)C[C@]2(C)[C@@]1(O)C(=O)NCCOc1ccc(F)cc1 [Compound 5] | 27.2 | 321 | 104 | 8.13 |  |  | 
5 | C[C@@H]1C[C@H]2[C@@H]3CCC4=CC(=O)C=C[C@]4(C)[C@@]3(F)[C@@H](O)C[C@]2(C)[C@@]1(O)c1csc(NCc2ccccc2)n1 [Compound 25] | 1.92 | 3930 | 79 | 29.1 |  |  | 
6 | COc1ccc(OCCCNC(=O)[C@@]2(O)[C@H](C)C[C@H]3[C@@H]4CCC5=CC(=O)C=C[C@]5(C)[C@@]4(F)[C@@H](O)C[C@@]32C)cc1OC [Compound 16] | 21.2 | 881 | 87.2 | 26.8 |  |  | 
7 | C[C@@H]1C[C@H]2[C@@H]3CCC4=CC(=O)C=C[C@]4(C)[C@@]3(F)[C@@H](O)C[C@]2(C)[C@@]1(O)C(=O)CO [Dex, dexamethasone, reference compound] |  |  |  |  | 100 | 2.86 | 100
8 | C[C@@H]1C[C@H]2[C@@H]3CCC4=CC(=O)C=C[C@]4(C)[C@@]3(F)[C@@H](O)C[C@]2(C)[C@@]1(O)c1csc(NC(=O)c2ccncc2)n1 [Compound 31] | 0 |  | 37.5 | 11.2 |  |  | 
9 | C[C@@H]1C[C@H]2[C@@H]3CCC4=CC(=O)C=C[C@]4(C)[C@@]3(F)[C@@H](O)C[C@]2(C)[C@@]1(O)C(=O)NCCCc1ccccc1O [Compound 3] | 24.1 | 1150 | 76 | 21.9 |  |  | 
10 | C[C@@H]1C[C@H]2[C@@H]3CCC4=CC(=O)C=C[C@]4(C)[C@@]3(F)[C@@H](O)C[C@]2(C)[C@@]1(O)c1csc(NC(=O)c2cccc(F)c2)n1 [Compound 26] | 3.9 | 1530 | 44.1 | 8.22 |  |  | 
11 | COc1ccc(CNc2nc([C@@]3(O)[C@H](C)C[C@H]4[C@@H]5CCC6=CC(=O)C=C[C@]6(C)[C@@]5(F)[C@@H](O)C[C@@]43C)cs2)cc1 [Compound 42] | 0.56 | 392 | 51.1 | 199 |  |  | 
12 | C[C@@H]1C[C@H]2[C@@H]3CCC4=CC(=O)C=C[C@]4(C)[C@@]3(F)[C@@H](O)C[C@]2(C)[C@@]1(O)C(=O)NCCCc1ccccc1 [Compound 11] | 36.5 | 114 | 88.8 | 30.2 |  |  | 
13 | C[C@@H]1C[C@H]2[C@@H]3CCC4=CC(=O)C=C[C@]4(C)[C@@]3(F)[C@@H](O)C[C@]2(C)[C@@]1(O)c1csc(NC(=O)c2ccc3ncsc3c2)n1 [Compound 39] | 0.96 | 1160 | 19 | 8.34 |  |  | 
14 | C[C@@H]1C[C@H]2[C@@H]3CCC4=CC(=O)C=C[C@]4(C)[C@@]3(F)[C@@H](O)C[C@]2(C)[C@@]1(O)c1csc(NC(=O)c2ccccn2)n1 [Compound 40] | 1.34 | 16900 | 19 | 8.34 |  |  | 
15 | C[C@@H]1C[C@H]2[C@@H]3CCC4=CC(=O)C=C[C@]4(C)[C@@]3(F)[C@@H](O)C[C@]2(C)[C@@]1(O)c1csc(NC(=O)c2ncco2)n1 [Compound 33] | 0 |  | 32.7 | 66.9 |  |  | 
16 | C[C@@H]1C[C@H]2[C@@H]3CCC4=CC(=O)C=C[C@]4(C)[C@@]3(F)[C@@H](O)C[C@]2(C)[C@@]1(O)C(=O)NCCCOc1ccc(F)cc1 [Compound 6] | 16 | 890 | 84.6 | 11.5 |  |  | 
17 | C[C@@H]1C[C@H]2[C@@H]3CCC4=CC(=O)C=C[C@]4(C)[C@@]3(F)[C@@H](O)C[C@]2(C)[C@@]1(O)c1csc(NC(=O)c2ccc(C(F)(F)F)cc2)n1 [Compound 30] | 7.43 | 1410 | 41.3 | 35.5 |  |  | 
18 | C[C@@H]1C[C@H]2[C@@H]3CCC4=CC(=O)C=C[C@]4(C)[C@@]3(F)[C@@H](O)C[C@]2(C)[C@@]1(O)c1csc(NC(=O)Cc2ccc(F)cc2)n1 [Compound 24] | 2.63 | 7690 | 79 | 5.96 |  |  | 
19 | C[C@@H]1C[C@H]2[C@@H]3CCC4=CC(=O)C=C[C@]4(C)[C@@]3(F)[C@@H](O)C[C@]2(C)[C@@]1(O)C(=O)NCCCc1ccc(F)cc1 [Compound 1] | 21.3 | 868 | 90.8 | 8.41 |  |  | 
20 | C[C@@H]1C[C@H]2[C@@H]3CCC4=CC(=O)C=C[C@]4(C)[C@@]3(F)[C@@H](O)C[C@]2(C)[C@@]1(O)C(=O)NCCCOc1ccc(C(=O)O)cc1 [Compound 19] | 0.84 | 406000 | 33.3 | 1450 |  |  | 
21 | C[C@@H]1C[C@H]2[C@@H]3CCC4=CC(=O)C=C[C@]4(C)[C@@]3(F)[C@@H](O)C[C@]2(C)[C@@]1(O)c1csc(NC(=O)c2cccnc2)n1 [Compound 32] | 0.03 | 2230 | 28.5 | 55.2 |  |  | 
22 | C[C@@H]1C[C@H]2[C@@H]3CCC4=CC(=O)C=C[C@]4(C)[C@@]3(F)[C@@H](O)C[C@]2(C)[C@@]1(O)c1csc(N(C)C(=O)c2ccc(F)cc2)n1 [Compound 43] | 1.63 | 86200 | 61 | 155 |  |  | 
23 | C[C@@H]1C[C@H]2[C@@H]3CCC4=CC(=O)C=C[C@]4(C)[C@@]3(F)[C@@H](O)C[C@]2(C)[C@@]1(O)C(=O)NCCOc1ccccn1 [Compound 8] | 49.7 | 248 | 95 | 5.69 |  |  | 
24 | COc1cccc(C(=O)Nc2nc([C@@]3(O)[C@H](C)C[C@H]4[C@@H]5CCC6=CC(=O)C=C[C@]6(C)[C@@]5(F)[C@@H](O)C[C@@]43C)cs2)c1 [Compound 29] | 0.67 | 19400 | 44.2 | 7.96 |  |  | 
25 | C[C@@H]1C[C@H]2[C@@H]3CCC4=CC(=O)C=C[C@]4(C)[C@@]3(F)[C@@H](O)C[C@]2(C)[C@@]1(O)c1csc(NC(=O)c2cscn2)n1 [Compound 36] | 1.19 | 5520 | 33.6 | 10.6 |  |  | 
